Reference: US20060166906A1, “6-O-substituted erythromycin derivatives having improved gastrointestinal tolerance” (priority 2001, published 2006)

Test system: conscious ferrets
Assay: Gastrointestinal tolerability study: nausea and emesis in conscious ferrets
Type: in vivo, ferret
Conditions: observed 90 minutes; for % Emesis: oral gavage 30 mg/kg in 2 mL ethanol and 4 mL water, vomiting ferrets / animals dosed; for Nausea Score: oral gavage 30 mg/kg, mean number of nausea behaviors (up to five) per animal
Experimental: Example 3 and three reference compounds were investigated for their ability to produce nausea and emesis in conscious ferrets using the method as described in Drugs, 53(2), 206-234 (1997) and Cancer Treat. Rep., 66(1), 187-189 (1982). Each compound was administered to 6 ferrets by oral gavage at 30 mg/kg in 2 mL of ethanol and 4 mL of water. […] Nausea was preceded by up to five of the following behaviors in the ferret: licking, down, flop, backing, and gag. […] The mean nausea score for a compound is the total number of nausea behaviors divided by the number of animals given the compound. Percent emesis is the total number of vomiting ferrets divided by the number of animals administered the compound.

CC[C@H]1OC(=O)[C@H](C)[C@@H](O[C@H]2C[C@@](C)(OC)[C@@H](O)[C@H](C)O2)[C@H](C)[C@@H](O[C@@H]2O[C@H](C)C[C@H](N(C)C)[C@H]2O)[C@](C)(O)C[C@@H](C)C(=O)[C@H](C)[C@@H](O)[C@]1(C)O [Erythromycin]
% Emesis: 67%
Nausea Score: 1.2

CC[C@H]1OC(=O)[C@H](C)C(=O)[C@H](C)[C@@H](O[C@@H]2O[C@H](C)C[C@H](N(C)C)[C@H]2O)[C@](C)(OC)C[C@@H](C)C(=O)[C@H](C)[C@H]2N(CCCCn3cnc(-c4cccnc4)c3)C(=O)O[C@]12C [Telithromycin]
% Emesis: 50%
Nausea Score: 1.8

CC[C@H]1OC(=O)[C@H](C)[C@@H](O[C@H]2C[C@@](C)(OC)[C@@H](O)[C@H](C)O2)[C@H](C)[C@@H](O[C@@H]2O[C@H](C)C[C@H](N(C)C)[C@H]2O)[C@](C)(OC)C[C@@H](C)C(=O)[C@H](C)[C@@H](O)[C@]1(C)O [Clarithromycin]
% Emesis: 83%
Nausea Score: 1.4
